Data: US5344930A, “Fluorine and phosphorous-containing amphiphilic molecules with surfactant properties” (Alliance Pharmaceutical Corp., priority 1993, dated 1994)
Read-outs that look alike come from different tables or passages of the source.

Assays:
[1] = Growth and viability of lymphoblastoid cell cultures of the Namalva strain; type: cell-based; settings: human, namalva lymphoblastoid cells, control = 100%; for activity: read-out: Cell Culture Growth %; for viability: read-out: Cell Culture Viability %
mice = assay: Injection into the tail vein of mice (deaths, growth); type: in vivo; settings: 500 μl in NaCl 9%, 10 mice of 20-25g, observed for 35 days
[2] = Fluorocarbon (F-decalin) emulsions: average particle size and stability; type: physicochemical; settings: for increase in average particle size: perfluorodecalin (50% w/v) emulsions, 2 or 3% w/v sole surfactant
Procedure: ^a Emulsions prepared by microfluidization.
Additional stable perfluorodecalin (50% w/v) emulsions based on the perfluoroalkylated phosphatidylcholines 11 or 12 (2 or 3% w/v) as the sole surfactant have been prepared by sonication.
^a Emulsions prepared by sonication
^b The emulsions are stored at 25° C.
^c The emulsions are stored at 50° C.
^a All the emulsions are prepared by microfluidization and stored at
The new perfluoroalkylated surfactants were solubilized or dispersed into water. Then the fluorocarbon was added under agitation. Any emulsification method like sonication can be used but mechanical procedures such as microfluidization or high pressure homogenization are preferred. The emulsion obtained can be used as an O2 carrier. The significant stabilization effect which can be obtained by incorporating the new F-alkyl surfactants is illustrated for various emulsion formulations (see Tables above).

[3] = Liposome preparation: average size and stability; type: physicochemical
Procedure: 1) Lipid 12 dissolved in chloroform was placed in a round bottom flask and the solvent evaporated by rotation under argon to produce a uniform film of dry lipid. Residual traces of chloroform were removed under vacuum (10^-3 mm Hg, 3 h). Dried lipid is suspended in HEPES buffer (10^-2 M,pH 7), vortexed for 5 ran., then probe sonicated (dial 7 on a Branson B30 sonifier, Power 4, Pulse 50, 3 mn.) 15° C. above phase transition temperature, to produce a clear bluish dispersion. Final concentration of 12 is 3% (w/v). Average size measurements were realised by light scattering on a Coulter Model N4SD, sub-Micron Particle Analyser: 0,12 μm.
2) Same dispersion procedure applied to powder lipid 12 produced a clear dispersion with an average particle size 0,12 μm.
Liposomes were observed by electronic microscopy after freeze-etching as unilamellar and multilamellar vesicles.

[4] = Interfacial tension and spreading coefficient between water and perfluorodecalin; type: physicochemical; settings: for γi (interfacial tension between water and perfluorodecalin): (+0.3), 56 mNm^-1 in the absence of surfactant; for Spreading Coef.: -56 mNm^-1 in the absence of surfactant
Procedure: (§1) The strong surface activity of the compounds encompassed by this invention is illustrated in particular by the strong lowering of the surface tension (γs) they cause when added to water, as shown by the examples of surface tensions (measured at 20° C. and expressed in milliNewton.meter^-1) and calculated spreading coefficients collected in the Table below: […]

[5] = Surface tension of aqueous solutions at 20° C.; type: physicochemical; settings: (+0.3)
Procedure: as §1

[6] = Table III, 1% compound + 2% EYP (Ref.: 3% EYP), 20% w/v F-decalin, 1 month at 25° C.
[7] = Table III, 1% compound + 2% EYP (Ref.: 3% EYP), 20% w/v F-decalin, sonication
[8] = Table III, 1% compound + 2% EYP (Ref.: 3% EYP), 20% w/v F-decalin, sonication, stored at 25° C.
[9] = Table I, 3% compound (Ref.: 3% EYP), 50% w/v F-decalin, 1 month at 50° C.
[10] = Table I, 3% compound (Ref.: 3% EYP), 50% w/v F-decalin, microfluidization
[11] = Table IV, 0.66% compound + 1.33% EYP, 100% w/v F-decalin, stored at 50° C.

C[N+](C)(C)CCOP(=O)([O-])OCC(COC(=O)CCCCCCCCCCC(F)(F)C(F)(F)C(F)(F)C(F)(F)C(F)(F)C(F)(F)F)OC(=O)CCCCCCCCCCC(F)(F)C(F)(F)C(F)(F)C(F)(F)C(F)(F)C(F)(F)F (racemic) [Compound 10, 1,2-di[(11-F-hexyl)undecaoyl] 3-[2'-(N,N,N-trimethylamino)ethyl] phosphoryl rac-glycerol]
activity ([1]; 1 g/l in 9% of NaCl): 99% | viability ([1]; 1 g/l in 9% of NaCl): 95% | concentration of which injection caused no deaths and did not perturb the normal growth (mice): 30000 µg/mL

C[N+](C)(C)CCOP(=O)([O-])OCC(COC(=O)CCCCCCCCCCC(F)(F)C(F)(F)C(F)(F)C(F)(F)F)OC(=O)CCCCCCCCCCC(F)(F)C(F)(F)C(F)(F)C(F)(F)F (racemic) [Compound 11, 1,2-di [(11-F-butyl)undecaoyl] 3-[2'-(N,N,N-trimethylamino)ethylphosphoryl] rac-glycerol]
activity ([1]; 1 g/l in 9% of NaCl): 60% | viability ([1]; 1 g/l in 9% of NaCl): 83% | concentration of which injection caused no deaths and did not perturb the normal growth (mice): 100000 µg/mL | Relative Increase % (particle size) ([2]; Table III, 0.66% compound + 1.33% EYP (Ref.: 2% EYP), 50% w/v F-decalin, 1 month at 50° C.): 35% | Average Particle Size After Preparation ([2]; Table III, 0.66% compound + 1.33% EYP (Ref.: 2% EYP), 50% w/v F-decalin, sonication): 0.37 μm | Average Particle Size After 1 month ([2]; Table III, 0.66% compound + 1.33% EYP (Ref.: 2% EYP), 50% w/v F-decalin, sonication, stored at 50° C.): 0.50 μm | increase in average particle size ([2]; sonication): 10%

C[N+](C)(C)CCOP(=O)([O-])OCC(COC(=O)CCCCC(F)(F)C(F)(F)C(F)(F)C(F)(F)C(F)(F)C(F)(F)F)OC(=O)CCCCC(F)(F)C(F)(F)C(F)(F)C(F)(F)C(F)(F)C(F)(F)F (racemic) [Compound 12, 1,2-di [(11-F-hexyl)pentanoyl] 3-[2' -(N,N,N-trimethylamino)ethylphosphoryl] rac-glycerol]
Average size of liposomes ([3]; 3% (w/v), from dried lipid film, HEPES buffer pH 7, probe sonicated, light scattering): 0,12 μm | average particle size of dispersion ([3]; same dispersion procedure applied to powder lipid): 0,12 μm | concentration of which injection caused no deaths and did not perturb the normal growth (mice): 100000 µg/mL | increase in average particle size ([2]; sonication): 10%

C[N+](C)(C)CCOP(=O)([O-])OCC(COCCCCCCCCCCCC(F)(F)C(F)(F)C(F)(F)C(F)(F)F)OCCCCCCCCCCCC(F)(F)C(F)(F)C(F)(F)C(F)(F)F (racemic) [Compound 13, 1,2-di [(11-F-butyl)undecyl] 3-[2'-(N,N,N-trimethylamino)ethylphosphoryl] rac-glycerol]
activity ([1]; 1 g/l in 9% of NaCl): 55% | viability ([1]; 1 g/l in 9% of NaCl): 91% | concentration of which injection caused no deaths and did not perturb the normal growth (mice): 60000 µg/mL

COCCOP(=O)(OCCOC)OCC(COC(=O)CCCCCCCCCCC(F)(F)C(F)(F)C(F)(F)C(F)(F)C(F)(F)C(F)(F)F)OC(=O)CCCCCCCCCCC(F)(F)C(F)(F)C(F)(F)C(F)(F)C(F)(F)C(F)(F)F (racemic) [Compound 14, [1',2'-di [(11-F-hexyl)undecanoyl]rac-glyceryl] [di (2'-methoxy-ethyl)] phosphate]
concentration of which injection caused no deaths and did not perturb the normal growth (mice): 10000 µg/mL

O=P(OCCC(F)(F)C(F)(F)C(F)(F)C(F)(F)C(F)(F)C(F)(F)F)(N1CCOCC1)N1CCOCC1 [Compound 1, [2-(F-hexyl)ethyl] dimorpholinophosphoramidate]
γi (interfacial tension between water and perfluorodecalin) ([4]; 1 g/l in water): 2.0 mNm^-1 | Spreading Coef. ([4]; 1 g/l in water): -1.6 mNm^-1 | γs (surface tension) ([5]; 1 g/l in water): 22.5 mNm^-1

O=P(OCCC(F)(F)C(F)(F)C(F)(F)C(F)(F)C(F)(F)C(F)(F)C(F)(F)C(F)(F)F)(N1CCOCC1)N1CCOCC1 [Compound 2, [2-(F-octyl)ethyl] dimorpholinohosphoramidate]
activity ([1]; 1 g/l in 9% of NaCl): 67% | viability ([1]; 1 g/l in 9% of NaCl): 106% | γi (interfacial tension between water and perfluorodecalin) ([4]; 1 g/l in water): 1.0 mNm^-1 | Spreading Coef. ([4]; 1 g/l in water): -0.6 mNm^-1 | γs (surface tension) ([5]; 1 g/l in water): 22.5 mNm^-1

O=P(OCCCCCCCCCCCC(F)(F)C(F)(F)C(F)(F)C(F)(F)C(F)(F)C(F)(F)F)(N1CCOCC1)N1CCOCC1 [Compound 3, [11-(F-hexyl)undecyl] dimorpholinohosphoramidate]
γi (interfacial tension between water and perfluorodecalin) ([4]; 0.1 g/l in water): 7.5 mNm^-1 | Spreading Coef. ([4]; 0.1 g/l in water): -0.9 mNm^-1 | γs (surface tension) ([5]; 0.1 g/l in water): 24.4 mNm^-1 | Relative Increase % (particle size) [2, 6]: 50% | Average Particle Size After Preparation [2, 7]: 0.26 μm | Average Particle Size After 1 month [2, 8]: 0.39 μm

O=P(OCCCCCCCCCCCC(F)(F)C(F)(F)C(F)(F)C(F)(F)C(F)(F)C(F)(F)C(F)(F)C(F)(F)F)(N1CCOCC1)N1CCOCC1 [Compound 4, [11-(F-octyl)undecyl] dimorpholinohosphoramidate]
γi (interfacial tension between water and perfluorodecalin) ([4]; 0.1 g/l in water): 1.4 mNm^-1 | Spreading Coef. ([4]; 0.1 g/l in water): -1.0 mNm^-1 | γs (surface tension) ([5]; 0.1 g/l in water): 22.5 mNm^-1 | Relative Increase % (particle size) [2, 6]: 50% | Average Particle Size After Preparation [2, 7]: 0.26 μm | Average Particle Size After 1 month [2, 8]: 0.39 μm

C[N+](C)(C)CCOP(=O)([O-])OCCC(F)(F)C(F)(F)C(F)(F)C(F)(F)C(F)(F)C(F)(F)C(F)(F)C(F)(F)F [Compound 5, [2-(F-octyl)ethyl] [2'-N,N,N trimethylamino ethyl] phosphate]
activity ([1]; 10 g/l in 9% of NaCl): 96% | viability ([1]; 10 g/l in 9% of NaCl): 102% | γi (interfacial tension between water and perfluorodecalin) ([4]; 1 g/l in water): 4.5 mNm^-1 | Spreading Coef. ([4]; 1 g/l in water): -4.6 mNm^-1 | γs (surface tension) ([5]; 1 g/l in water): 23.0 mNm^-1 | concentration of which injection caused no deaths and did not perturb the normal growth (mice): 1000 µg/mL | emulsion stability (in words) ([2]; 50% w/v F-decalin emulsions, 1% surfactant where stated): remain stable at 50 °C for at least one month | Average Particle Size After Preparation ([2]; Table I, 1% compound (Ref.: 1% EYP), 50% w/v F-decalin, microfluidization): 0.48 μm | Relative Increase % (particle size) ([2]; Table I, 1% compound, 50% w/v F-decalin, 1 month at 50° C.): 14% | Average Particle Size After 1 month at 50° C. ([2]; Table I, 1% compound, 50% w/v F-decalin, microfluidization): 0.55 μm | Relative Increase % (particle size) [2, 9]: 50% | Average Particle Size After 1 month at 50° C. [2, 10]: 0.30 μm | Average Particle Size After Preparation [2, 10]: 0.20 μm | Relative Increase % (particle size) [2, 6]: 100% | Average Particle Size After Preparation [2, 7]: 0.15 μm | Average Particle Size After 1 month [2, 8]: 0.29 μm | Average Particle Size After Preparation ([2]; Table IV, 0.66% compound + 1.33% EYP (Ref.: 2% EYP), 100% w/v F-decalin, microfluidization): 0.6 μm | Average Particle size After 3 months ([2]; Table IV, 0.66% compound + 1.33% EYP (Ref.: 2% EYP), 100% w/v F-decalin, stored at 50° C.): 1.1 μm | Average Particle size After 8 months [2, 11]: 1.35 μm | Relative Increase % (particle size) [2, 11]: 125%

C[N+](C)(C)CCOP(=O)([O-])OCCCCCCCCCCCC(F)(F)C(F)(F)C(F)(F)C(F)(F)C(F)(F)C(F)(F)C(F)(F)C(F)(F)F [Compound 6, [11-(F-octyl)undecyl] [2'-N,N,N trimethylamino ethyl] phosphate]
γi (interfacial tension between water and perfluorodecalin) ([4]; 1 g/l in water): 9.4 mNm^-1 | Spreading Coef. ([4]; 1 g/l in water): -16.5 mNm^-1 | γs (surface tension) ([5]; 1 g/l in water): 30.0 mNm^-1 | concentration of which injection caused no deaths and did not perturb the normal growth (mice): 1000 µg/mL | Relative Increase % (particle size) [2, 9]: 44% | Average Particle Size After 1 month at 50° C. [2, 10]: 0.36 μm | Average Particle Size After Preparation [2, 10]: 0.25 μm | Relative Increase % (particle size) [2, 6]: 110% | Average Particle Size After Preparation [2, 7]: 0.17 μm | Average Particle Size After 1 month [2, 8]: 0.36 μm
